Laboratory results reported in patent US20220218701A1, “COMPOSITIONS AND METHODS COMPRISING ENDOTHELIN A RECEPTOR ANTAGONISTS AND ANDROGEN THERAPIES” (priority 2019, published 2022).
“Also recorded” adds a separate entry of the source.

Tests used:
[1] = system: metastatic prostate cancer; details: cited from earlier work
osteoblast = details: cited from earlier work
[2] = system: prostate cancer bone metastasis; details: in vivo; cited from earlier work
[3] = system: castrate-resistant prostate cancer (CRPC); details: phase 2, 288 men with CRPC, cited from earlier work
[4] = system: breast cancer osteosclerotic bone metastasis; details: mouse, in vivo; cited from earlier work
metastatic CRPC [5] = details: cited from earlier work
[6] = molecular target: T1, endothelin B receptor (ETBR) (Homo sapiens, UniProt P24530); details: cited from earlier work
T1 sequence (P24530 27-442): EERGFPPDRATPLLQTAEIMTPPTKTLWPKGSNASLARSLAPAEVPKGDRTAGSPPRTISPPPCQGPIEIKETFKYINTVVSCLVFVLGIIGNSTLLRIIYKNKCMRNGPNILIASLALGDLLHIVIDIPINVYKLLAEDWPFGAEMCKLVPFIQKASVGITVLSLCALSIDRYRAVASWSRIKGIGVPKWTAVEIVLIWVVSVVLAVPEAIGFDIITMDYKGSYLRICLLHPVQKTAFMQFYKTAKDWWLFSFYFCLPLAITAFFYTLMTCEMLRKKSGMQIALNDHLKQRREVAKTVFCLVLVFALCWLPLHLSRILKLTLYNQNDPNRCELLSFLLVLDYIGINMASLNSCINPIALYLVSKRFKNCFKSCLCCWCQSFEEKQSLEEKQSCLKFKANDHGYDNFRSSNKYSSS

[7] = Body weight and adverse effects in the ARCaPM model; format: in vivo, athymic nude mice
Experimental: Mice body weights were measured starting at 7 days post-inoculation and continued every 2-3 days until the completion of the experiment at 152 days. Two days after inoculation, mice began to receive zibotentan or vehicle control. Due to potential adverse effects in the Zibo+Castr group, the dosing was reduced to 5 days/week starting at day 59 post inoculation. Veh=vehicle control; Zibo=zibotentan; Sham=sham surgery; Castr=castration
(§1) Forty-eight HSD athymic nude male mice were obtained from Harlan Sprague Dawley (Envigo, Indianapolis, Ind.) after undergoing castration or sham surgery. At five weeks of age, mice were anesthetized using isoflurane vaporizer anesthesia. ARCaPM prostate cancer cells were washed, resuspended in PBS, and inoculated into the left cardiac ventricle at a volume of 100 μl containing 1×10^5 cells, as previously described. Starting at seven days post-inoculation, mice were weighed every 2-3 days.
(§2) Mice were anesthetized using an isoflurane vaporizer anesthetic unit and underwent radiographic imaging using a Faxitron UltraFocus 60 Digital Radiographic Unit (Faxitron, Tucson, Ariz.) every 2-4 weeks with attention paid to the appearance of sclerotic or lytic skeletal lesions.
The mice underwent radiographic imaging every 2-4 weeks to monitor for the development of bone lesions. Mice were also monitored frequently for abnormal behavior indicating the presence of a large tumor burden. Euthanasia was performed according to pre-determined humane endpoints—15% weight loss, paralysis, skeletal fractures, or any other signs of distress. Mice were weighed every 2-3 days (FIG. 3). As expected, mice in the castration groups had less weight gain compared to the sham groups, as has been reported elsewhere.

metastatic CRPC [8] = details: phase 2, 312 men with metastatic CRPC; increased from 17.3; cited from earlier work
[9] = as reported by the applicant's group; cited from earlier work
[10] = system: non-metastatic prostate cancer; details: phase 3, monotherapy, non-metastatic disease; stopped early; cited from earlier work
[11] = system: ARCaPM prostate cancer cell line; test: ARCaPM prostate cancer bone metastasis model, intracardiac inoculation, castration or sham surgery; format: in vivo, athymic nude mice
Experimental: Forty-eight male athymic nude mice either underwent castration or sham surgery at four weeks of age. At 5 weeks of age, mice were inoculated with ARCaPM prostate cancer cell line into the left cardiac ventricle. […] Two days later, mice began zibotentan 25 mg/kg/day or vehicle control by gavage.
as §1
Zibotentan is an ETAR-specific antagonist and was obtained from AstraZeneca (Cambridge, England). Zibotentan was dissolved in 1% polysorbate 80 at a concentration of 5 mg/ml. Mice in the treatment group received zibotentan 25 mg/kg/day. Mice in the vehicle control group received an equivalent volume of 1% polysorbate 80 via gavage. Gavage treatments were started two days after the intracardiac inoculations (5 weeks+2 days of age) seven days/week. The dosing scheduled was changed to five days/week at 59 days post-inoculation.
as §2
Following euthanasia, mouse femora, tibiae, humeri, spines and other bones were harvested and fixed in 10% buffered formalin for 48 hours and decalcified in Immunocal (Decal Chemical Corp, Suffern, N.Y.) for an additional 48 hours. Bones were rinsed, processed and paraffin embedded. Blocks were cut into 5 μm sections, mounted onto charged glass slides, and air-dried overnight.
Static histomorphometric analysis was performed on embedded samples stained with hematoxylin, eosin, and orange G, a bone matrix stain. Images of the samples were taken at 4× with Nikon Eclipse 90i upright microscope and Nikon HD Cooled Color Digital Camera DXM1200C paired with Nikon ACT-1C software. Each sample produced 10 to 30 tiled scans of the whole specimen and were stitched using Adobe Photoshop CC. Tumor area was traced and measured on Adobe Photoshop CC with Cintiq 22HD touch (Wacom) tablet PC and stylus. Then, measured tumor area was divided by each subject's age in days for further statistical analysis.
Forty-eight male athymic nude mice underwent castration (24 mice) or sham surgery (24 mice) at three weeks of age. At five weeks of age, ARCaPM prostate cancer cells (1×10^5 cells in 100 μl) were inoculated into the left cardiac ventricle. […] Two days later, zibotentan 25 mg/kg/day or vehicle control treatments by gavage were started. This strategy produced four experimental groups: vehicle+sham (Veh+Sham), vehicle+castrate (Veh+Castr), zibotentan+sham (Zibo+Sham), and zibotentan+castrate (Zibo+Castr) (FIG. 2).

ET-1 = test: Serum ET-1 ELISA at euthanasia in the ARCaPM model; format: in vivo, mice
Experimental: Sera were collected at euthanasia and frozen. Thawed sera were analyzed for ET-1 concentration using ELISA in the four experimental groups and further subdivided into the presence or absence of prostate cancer lesions. Data was analyzed using two-way ANOVA. Treatment with zibotentan was a significant source of statistical variation. Blood was collected at euthanasia. Sera was collected using serum-separator centrifuge tubes (BD Microtainer®, SST, Becton Dickinson, Franklin Lakes, N.J.), and frozen at −80° C. for later analyses. ET-1 concentration was measured in thawed sera using an ET-1 colorimetric ELISA kit (R&D Systems, Minneapolis, Minn.) and a BioTek Synergy HTX plate reader (Winooski, Vt.).

ETAR = molecular target: T2, ETAR (Mus musculus, UniProt Q61614); test: Il-6 expression (RT-PCR) in calvarial osteoblasts treated with ET-1; format: cell-based; details: 100 μM zibotentan pre-treatment six hours, then 10 nM ET-1 four hours
T2 construct: Murine calvarial osteoblasts were collected and cultured as previously described; endogenous in cells; host or cells: primary murine calvarial osteoblasts
T2 sequence (Q61614 21-427): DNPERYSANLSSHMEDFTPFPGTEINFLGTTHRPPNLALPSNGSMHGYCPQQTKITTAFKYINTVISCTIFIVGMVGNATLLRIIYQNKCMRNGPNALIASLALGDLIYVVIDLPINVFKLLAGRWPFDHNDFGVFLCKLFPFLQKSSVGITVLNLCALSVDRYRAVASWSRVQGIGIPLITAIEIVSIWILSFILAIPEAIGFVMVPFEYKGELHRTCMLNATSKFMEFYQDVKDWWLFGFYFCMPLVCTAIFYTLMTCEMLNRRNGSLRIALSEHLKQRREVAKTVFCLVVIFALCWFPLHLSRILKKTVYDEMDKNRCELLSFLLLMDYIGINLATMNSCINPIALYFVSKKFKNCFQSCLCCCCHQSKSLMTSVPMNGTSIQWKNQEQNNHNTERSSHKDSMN
Experimental: Calvarial osteoblasts were cultured and pre-treated with or without 100 μM zibotentan for six hours followed by treatment with or without 10 nM ET-1 for four hours. RNA has then harvested and analyzed for the expression of Il-6, a marker of ET-1 action in osteoblasts. Il-6 expression was normalized to the housekeeping gene Rpl32. Data was analyzed using one-way ANOVA followed by Tukey's multiple comparison test.
Murine calvarial osteoblasts were collected and cultured as previously described^7. Two days post-confluence, osteoblasts were treated in triplicate with or without 100 μM zibotentan for six hours. This was followed by treatment with or without 10 nM ET-1 for four hours. RNA was collected using Direct-zol™ RNA MiniPrep Plus kit (Zymo, Irvine, Calif.) according to the manufacturer's directions. RNA was then analyzed by RT-PCR using the iTaq Universal SYBR Green One-Step Kit and a C1000 Thermal Cycler with a CFX96 fluorescent real-time attachment (Bio-Rad, Hercules, Calif.) using the following primers: Il-6: F, ccg gag agg aga ctt cac ag; R, gga aat tgg ggt agg aag ga; and Rpl32: F, cag ggt gcg gag aag gtt caa ggg; R, ctt aga gga cac gtt gtg agc aat. […] Changes in mRNA concentration were determined by subtracting […] (Δ=CtIl-6−CtRpl32). […] The fold difference was calculated as 2^ε.

[12] = Zibo + Castr group, zibotentan 25 mg/kg/day gavage
[13] = Zibo + Sham group, zibotentan 25 mg/kg/day gavage
[14] = Zibo+Sham vs Veh+Sham and Veh+Castr groups
[15] = effect of castration in zibotentan treated groups, Zibo+Castr vs. Zibo+Sham

In the case of `CCCCN(CCCC)C(=O)CN1C[C@H](c2ccc3c(c2)OCO3)[C@@H](C(=O)O)[C@@H]1c1ccc(OC)cc1` [atrasentan], the “time to progression (primary endpoint)” value ([1]; phase 3, 809 men with metastatic disease) is given as “did not reduce”, the “bone alkaline phosphatase progression” value ([1]; phase 3, secondary analyses) is given as “did reduce” and the “anabolic effects of ET-1 on the osteoblast” value (osteoblast) is given as “block”. For the same compound, the bone lesions [2] was “significantly reduced”, the “lesions outside of the skeleton such as adrenal gland and liver” value [2] was “not lesions outside of the skeleton” and the “prostate-specific antigen (PSA) progression” value [3] was “delayed”. The time to progression ([3]; increased from 129) was 196 days, the “formation of osteoblastic lesions” value [4] was “blocked” and the “tumor progression outside of bone” value [4] was “not tumor progression outside of bone”. The “overall or progression-free survival compared to placebo” value (metastatic CRPC [5]; men with metastatic CRPC treated with docetaxel) was “did not improve” and the survival (metastatic CRPC [5]; patients with the highest circulating levels of bone turnover markers) was “survival benefit”.

For `COc1nc(C)cnc1NS(=O)(=O)c1cccnc1-c1ccc(-c2nnco2)cc1` [zibotentan], the “affinity for the endothelin B receptor (ETBR)” value [6] is given as “no affinity”, the body weight gain ([7]; Zibo+Castr group) is given as “lack of significant weight gain was more evident” and the “radiographic images, intestinal air” value ([7]; Zibo+Castr group) is given as “intestinal gas distension within the stomach and intestines”. The “mice that lost more than 15% of weight and were euthanized” value ([7]; Zibo+Castr group, 34 and 42 days post-inoculation, no tumor found) was “Two”, the abdominal distension ([7]; Zibo+Castr group, within 2-4 weeks of treatment initiation) was “developed abdominal distension” and the “unintended consequences of zibotentan and castration” value ([7]; combination of zibotentan and castration) was “weight loss, diffuse gas distention within the stomach and intestines, and respiratory epithelial inflammation”. The overall survival (metastatic CRPC [8]) was 24.5 months, the “side effect underlying gastrointestinal effects” value [9] was “immune-related damage of nasal olfactory epithelium leading to aerophagia and intestinal distention” and the “overall survival (primary outcome)” value [10] was “lack of effect”. The “number of skeletal lesions, Left leg Prox tibia” value [11, 12] was 1, the “number of soft tissue lesions, TOTAL” value [11, 12] was 0 and the “number of skeletal lesions, Left leg Dist femur” value [11, 13] was 1. For the same compound, the “number of skeletal lesions, Left leg Prox tibia” value [11, 13] was 1, the “number of skeletal lesions, Maxilla” value [11, 13] was 2 and the “number of skeletal lesions, Rib” value [11, 13] was 1. For the same compound, the “number of skeletal lesions, Right arm Prox humerus” value [11, 13] was 1, the “number of skeletal lesions, Right arm Prox radius” value [11, 13] was 1 and the “number of skeletal lesions, TOTAL” value [11, 13] was 8. The “number of skeletal lesions, Thoracic spine T10” value [11, 13] was 1, the “number of soft tissue lesions, Adrenal Right” value [11, 13] was 1 and the “number of soft tissue lesions, Eye Left” value [11, 13] was 1. For the same compound, the “number of soft tissue lesions, TOTAL” value [11, 13] was 2, the “time to bone-specific tumor events” value ([11]; Zibo+Castr compared to Zibo+Sham group, p=0.0250) was “longer” and the “detectable tumor at the completion of the experiment” value ([11]; Zibo+Castr group, day 152) was “No mouse”. The survival ([11]; Zibo+Castr vs Veh+Sham groups) was “no survival difference”, the “time to a tumor event (tumor-free status)” value ([11]; Zibo+Castr vs Zibo+Sham group, p=0.0149) was “significantly longer time to a tumor event” and the “radiographically apparent lesions at the end of the experiment” value ([11]; Zibo+Castr, 152 days) was “lack of radiographically apparent lesions”. The “survival (Kaplan-Meier)” value ([11]; Zibo+Sham group, p=0.0045) was “significantly shorter survival”, the “skeletal lesion area (histomorphometry)” value [11, 14] was “No significant differences” and the “tumor area adjusted to the day post-inoculation of euthanasia” value [11, 14] was “differences among the groups were not detected”. For the same compound, the survival ([11]; absence of androgen, Zibo+Castr vs. Veh+Castr, p=0.0050) was “improved survival”, the “number of skeletal lesions” value [11, 15] was “reduced the number of skeletal lesions” and the survival [11, 15] was “increased survival”. For the same compound, the survival ([11]; sham-operated mice, Zibo+Sham vs. Veh+Sham, p=0.0171) was “decrease survival”, the “serum ET-1 concentration” value (ET-1; zibotentan-treated tumor-bearing mice vs tumor-free) was “trend for higher serum ET-1” and the “serum ET-1 concentration” value (ET-1; zibotentan-treated vs vehicle control mice, sera at euthanasia) was “significant increase; also recorded: higher”. The “Il-6 expression (marker of ET-1 action, normalized to Rpl32)” value (ETAR) was “prevented the increase in Il-6 expression; also recorded: blocks ETAR signaling”.
